In patent US12697366B2, “Thermogenic compositions and methods” (Ohio State Innovation Foundation, priority 2016, dated 2026):

How the values were obtained:
[1] = system: GLUT4; assay: GLUT4-GFP translocation in transfected NIH-3T3 cells (confocal microscopy); assay type: cell-based; conditions: insulin 10 μg/mL, nanoscaffold 10 μM
Excerpt: FIGS. 30A to 30D show translocation of GLUT4 (the major glucose transporter of adipocytes). Non-differentiated NIH-3[…][…]-GFP plasmid ([…] #52872) on Petri-35 dishes with coverslip ([…], cat #[…]-1.5-14-C, USA). […] FIG. 30A: GLUT4 (white vesicles) in cells (arrow) treated with vehicle are mainly in the cytosol. […] All images were taken at 60× magnification.

[2] = system: human brain endothelial cells (hBEC); assay: FD-glucose uptake in human brain endothelial cells (hBEC); assay type: cell-based; conditions: hINS 1.7 μM, AAC2 0.1 μM, 50 min; FIG. 42B
Procedure: FD-glucose uptake in human brain endothelial cells (hBEC, n=8 per treatment) treated with vehicle (Veh; PBS, open bar) or hINS (1.7 μM), human leptin (hLep; 62.5 nM, hatched bar), or AAC2 (0.1 μM black bar) in the presence and absence of GLUT1 inhibitor (BAY-876; 10 nM in DMSO). Cells were pre-treated with or without BAY-876 for 40 min and then FD glucose and treatment reagents were added for additional 50 min of incubation. Data (%) was normalized to FD-glucose uptake in control (Veh) hBEC without inhibitor (100%).

[3] = system: PPARα-LBD; assay: PPARα-LBD luciferase reporter in transiently transfected HEK293 cells; assay type: cell-based, human; conditions: EREG, 12 hrs
Procedure: FIGS. 11A to 11I show adipokine Ereg is bilaterally associated with obesity and thermogenesis and activates PPARα. […] Microarray gene analysis was performed using Affymetrix microarray. FIG. 11B: Ereg expression was measured in non-differentiated and differentiated (day 5) 3T3-L1 adipocytes (Mann-Whitney test) using a customized NanoString mouse panel. FIG. 11C: Ereg expression was measured in differentiated (day 5) 3T3-L1 and Aldh1a1^−/− adipocytes by Taqman and normalized to TATA box protein (TBP). FIG. 11D: Plasma EREG concentrations were measured in mice from Study 1 by western blot. […] FIG. 11E: Plasma EREG concentrations were measured and quantified in iAb of WT and ob/ob mice from Study 2 by western blot (n=5 per each group). […] FIG. 11F: EREG was measured in iAb, subcutaneous and brown fat by western blot. Fat pads were dissected from WT mice on regular chow (Study 1). FIG. 11G: Ucp2 and Ucp1 expression was measured in differentiated 3T3-L1 adipocytes (day 5) stimulated with vehicle (PBS) or recombinant EREG (50 ng/mL) added in the differentiation medium I and II. Expression level were measured by Taqman and normalized by TBP. FIGS. 11H and 11I: HEK293 cells were transiently transfected with PPARα-LBD, UASTK-luciferase, and renilla. […] Data represents % PPARα-LBD activation. Asterisks indicate significant difference (p<0.05) compared to vehicle control, #, indicates statistical difference between PPARα-LBD activation by EREG alone and in the presence of inhibitors. Data represent mean±SD. The Mann-Whitney test was used throughout these studies for group comparison.
HEK293 cells ([…] cells, 24-well plates) were used for transient transfection experiments. Cells were transfected with human PPARα-LBD construct, yeast UASTK luciferase reporter (SwitchGear Genomics, Menlo Park, CA), using Fugene (Roche Applied Science, Indianapolis, IN). Transfections were carried out in OptiMeM (Invitrogen, Carlsbad, CA) medium for 12 hours as described previously. Luciferase was measured using Promega assay according to manufacturer's instructions

[4] = system: 3T3-L1 adipocytes; assay: Thermogenic gene expression in 3T3-L1 adipocytes (TaqMan / RT-PCR); assay type: cell-based, mouse
Procedure: FIGS. 9A to 9D show DRG neurons (500 neurons per well) cultured in DRG culture medium only, or DRG culture medium with NT-3 (1 ng/mL), with NGF (10 ng/mL), with WT secretome (1/1, v/v), or with Aldh1a1^−/− secretome (1/1, v/v) for 24 hours. WT and Aldh1a1^−/− adipocytes differentiated for 5 days. Secretome is the media collected from these cells for 24 h. Neurite outgrowth parameters were assayed using the Thermo Scientific™ ArrayScan™ XTI Live High Content microscope and analyzed with the Neuronal Profiling Algorithm (ThermoFisher). Nine independent experiments were performed using DRG from three mice. Each DRG batch was analyzed in triplicate. Data are shown as mean±SD obtained with one DRG batch. Asterisks indicate P<0.05 between different groups; Mann-Whitney U test. FIG. 9A: Representative images show ~25% of area used for the automatic quantification of neuronal parameters in FIG. 3 per one condition. […] FIG. 9B: Secreted EFNA5 levels in the medium from 3T3-L1 preadipocytes and adipocytes differentiated for 4d were analyzed by ELISA. FIG. 9C: Basal metabolic rate (heat) was measured in PBS- and EFNA5-injected mice from Table 1, Study 4 by an open circuit indirect calorimetry treadmill. […] Expression was measured by RT-PCR and normalized by 18S.
FIGS. 11A to 11I show adipokine Ereg is bilaterally associated with obesity and thermogenesis and activates PPARα. […] FIG. 11B: Ereg expression was measured in non-differentiated and differentiated (day 5) 3T3-L1 adipocytes (Mann-Whitney test) using a customized NanoString mouse panel. FIG. 11C: Ereg expression was measured in differentiated (day 5) 3T3-L1 and Aldh1a1^−/− adipocytes by Taqman and normalized to TATA box protein (TBP). FIG. 11D: Plasma EREG concentrations were measured in mice from Study 1 by western blot. […] FIG. 11E: Plasma EREG concentrations were measured and quantified in iAb of WT and ob/ob mice from Study 2 by western blot (n=5 per each group). […] FIG. 11F: EREG was measured in iAb, subcutaneous and brown fat by western blot. […] Expression level were measured by Taqman and normalized by TBP. […]

Row | Substance | GLUT4 translocation [1] | glucose uptake in human blood-brain barrier endothelial cells [2] | induction of PPARα (PPARα-LBD activation) [3] | expression of thermogenic gene Pgc1a ([4]; 10 ng/ml recombinant EREG, FIG. 22) | Ucp1 and Ucp2 expression ([4]; recombinant EREG 50 ng/mL, day 5)
1 | insulin: insulin (bovine or human) | translocated from cytosol to membrane | not | – | – | –
2 | EREG: Epiregulin, member of the epidermal growth factor family; recombinant mouse or human protein | – | – | dose dependent induction | increases | induced
